Patent publication US20260335388A1, “COMBINATION THERAPIES WITH ONCOLYTIC ADENOVIRUS AND TOPOISOMERASE I INHIBITORS OR PRODRUGS THEREOF” (priority 2022, published 2026)

Tests used:
[1] = test system: HSJD-RBT-7 tumors; format: in vivo, mouse; settings: systemic drug after intratumoral VCN-01 3×10E^9 vp/tumor; 5 days (FIG. 3)
[2] = test system: E1A; format: in vivo, mouse
[3] = test system: CDKN1A; format: cell-based, human; settings: RBT-7 cells pre-infected with VCN-01; topotecan 2 μM (FIG. 17F)
Method: To assess the expression of genes involved in the cell cycle, 6-well culture plates containing 2×10^6 retinoblastoma cells were used. VCN-01 was added at 50 MOI for 48 h, followed by the addition of topotecan (2 μM), […] (12.5 μM) or culture medium. The cell pellets were collected 24 h later. The samples were plated in the TaqMan® Array of Human Cyclins & Cell Cycle Regulation (Thermo Fisher Scientific). This array contains 92 assays of cell cycle-associated genes and assays of GAPDH, 18S, HPRT1 and GUSB as endogenous control genes. the threshold cycle (Ct) value ≥35 was established as absence of expression. The mean expression value of the controls was used to normalize gene expression values. The thresholds for upregulation and downregulation were 2^−ΔΔCt≥2.0 and 2^−ΔΔct≤0.5, respectively (Livak and Schmittgen, “Analysis of relative gene expression data using real-time quantitative PCR and the 2 (−Delta Delta C(T)) Method,” Methods 2001; 25(4):402-8).
SYBR primers were CDKN1A (Forward 5′-GGACAGGAGAGGAAGACCATGT-3′ (SEQ ID NO: 15), Reverse 5′-TGGAGTGGTAGAATTCTGTCATGC-3′ (SEQ ID NO: 16) and CDK6 (Forward 5′-CCAGGCAGGCTTTTCATTCA-3′ (SEQ ID NO: 17), Reverse 5′-AGGTCCTGGAAGTATGGGTG-3′ (SEQ ID NO: 18).

[4] = test system: s.c. retinoblastomas (Y79 and RBT-7); assay: VCN-01 genomes in s.c. xenografts (Y79 and RBT-7); format: in vivo, mouse
Method: To quantify genome copies of VCN-01 in cell cultures or mouse tissues, total DNA was extracted and real time quantitative polymerase chain reactions (RT-qPCR) was performed as described (Cascallo et al., “Systemic toxicity-efficacy profile of ICOVIR-5, a potent and selective oncolytic adenovirus based on the pRB pathway,” Mol Ther 2007; 15(9):1607-15).
Intratumoral infection of VCN-01. S.c. tumors were established in athymic nude mice. Upon xenograft engraftment, mice received one intratumoral injection of VCN-01, alone or combined with one cycle of topotecan, […], or hydroxyurea. At 5 and 15 days after VCN-01 inoculation, genome copies of VCN-01 were quantified in the tumors and immunostained for E1A and E2F-1.
To establish s.c. tumors, 10^6 retinoblastoma cells suspended in 25 µL matrigel (Corning, Glendale, AZ, USA) were injected in athymic nude mice. Upon xenograft engraftment (tumor volumes ranging 100-200 mm^3), treatments were started. Mice received VCN-01 (3×10^9 vp in 20 µL vehicle, single intratumoral injection at day 1), alone or combined with one cycle of topotecan (0.6 mg/kg, intraperitoneal -i.p.-, daily at days 1-5), […] (40 mg/kg, i.p, one single dose at day 1), or hydroxyurea (200 mg/kg, i.p., daily at days 1-5). […] In tumor homogenates, genome copies of VCN-01 were quantified. […]

[5] = test system: E1a; assay: Immunoblot of E1a / E2F-1 in VCN-01-infected Y79 cells with further chemotherapeutics; format: cell-based
Method: 2 million Y79 retinoblastoma cells were infected with 50 MOIs of VCN-01. […] Etoposide is topoisomerase 2 inhibitor.
In all experiments, 6-well culture plates containing 2×10^6 cells were used. […] The experiments were controlled by adding culture medium instead of the second treatment. […] The analyses were expanded to other chemotherapeutic agents including hydroxyurea ([…]), etoposide (2 μM), irinotecan (10 μM) or SN-38 (1 μM).
Near-infrared labeled secondary antibodies (Odyssey CLx, LI-COR Inc. Bad Homburg, Germany) were used for detection.

[6] = test system: HSJD-NB-005 neuroblastoma; assay: Antitumor activity in neuroblastoma PDX HSJD-NB-005; format: in vivo, mouse; settings: single treatment (FIG. 24D,F)
Method: PDX of neuroblastoma (pediatric solid tumor) were implanted subcutaneously into athymic nude mice. Tumor model was HSJD-NB-005. Upon engraftment (tumor volumes ranging 100-500 mm^3), treatments were started. The activity of topotecan vs. irinotecan in combination with VCN-01 was evaluated. The following groups of mice were included in the study, with an n of 6 tumors per group: • Group 1: no treatment • Group 2: topotecan i.p. at 0.6 mg/kg, Day 1-5 • Group 3: irinotecan i.p. at 10 mg/kg, Day 1-5 • Group 4: VCN-01 i.t at 3E9 vp/tumor, Day 1 • Group 5: VCN-01 i.t at 3E9 vp/tumor, Day 1 (morning)+topotecan i.p. at 0.6 mg/kg, Day 1-5 • Group 6: VCN-01 i.t at 3E9 vp/tumor, Day 1 (morning)+irinotecan i.p. at 10 mg/kg, Day 1-5
Antitumor activity in extracranial pediatric solid tumors. 5-10 mm^3 fresh fragments of Ewing sarcoma or neuroblastoma PDX were implanted in both flanks of mice. Upon s.c. engraftment (tumor volume 150-200 mm^3), mice received topotecan (0.6 mg/kg, i.p., days 1-5), VCN-01 (3×10^9 vp in 20 µL vehicle, intratumoral, day 1), or the combination. In two additional groups, an alternative topoisomerase 1 inhibitor, irinotecan (10 mg/kg, i.p., on days 1-5) we used in place of topotecan. Upon completion of treatments, tumor volumes were followed until endpoint (1500 mm^3), or until day 80.

CC[C@@]1(O)C(=O)OCc2c1cc1n(c2=O)Cc2cc3c(CN(C)C)c(O)ccc3nc2-1 [Topotecan, topotecan]
VCN-01 genome content in tumors [1]: increases VCN-01 genome content
number of E1A-positive cells ([2]; 5-day topotecan treatment, VCN-01-pretreated tumors, vs saline, […] or hydroxyurea (FIG. 18I)): highest number of E1A-positive cells
level of E1A protein expression ([2]; 5-day topotecan treatment, VCN-01-pretreated tumors, vs saline, […] or hydroxyurea (FIG. 18J)): highest level of E1A protein expression
VCN-01 activity (E1A) in tumors ([2]; systemic drug after intratumoral VCN-01, 5 or 15 days (FIGS. 4A-C)): enhances VCN-01 activity
increase in expression of CDKN1A [3]: 10 fold
counts of viral genomes, 5 days ([4]; 5 days after intratumoral VCN-01 (FIG. 18G)): higher counts of viral genomes
counts of viral genomes, 15 days ([4]; 15 days after intratumoral VCN-01 (FIG. 19B)): Different counts of viral genomes were not observed
expression of VCN-01 proteins (E1a) ([5]; VCN-01 50 MOI, drug added at 24 h, lysis at 48 h (FIG. 7)): similarly to topotecan
expression of E2F-1 and E1A ([5]; Y79 cells pre-exposed to VCN-01 (FIG. 13H)): increased the expression of E2F-1 and E1A similarly to topotecan
response of xenograft to single treatment [6]: highly resistant
